In patent US9271991B2, “Trimegestone (TMG) for treatment of preterm birth” (Dignity Health, priority 2010, dated 2016):

Columns and labels:
[1] = test system: pregnant rats (term delivery); assay: Delay of term delivery in pregnant rats; assay type: in vivo, Sprague-Dawley rats
Excerpt: Timed-pregnant Sprague-Dawley rats (200-250 g) from Charles-River Laboratories (Wilmington, Mass., USA) were delivered to our animal care facilities on day 15 of gestation (day 1 being the day when a sperm plug was observed). The animals were housed separately, with free access to food and water and maintained on a constant 12-hour light-dark cycle. Control pregnant rats were spontaneously delivering on day 22 of gestation. The animals were randomly allocated into groups and sacrificed by carbon dioxide inhalation on day 5 postpartum or on day 25 of gestation in the groups with delayed delivery.
Pregnant rats (N=6 per group) were treated, when not otherwise mentioned, from day 20 of gestation until delivery. Single daily treatments were performed at 8 am and twice a day treatments at 8 am and 8 pm. Treatment began daily on day 20 of gestation with vehicles or: a) Topical P4 at various doses (4-30 mg/day, vehicle (v)=fish oil) or topical TMG ([…], v=fish oil; b) Subcutaneous (s.c.) P4 (0.5-4 mg/day, v=sesame oil) or s.c. TMG (0.5-2 mg/day, v=benzyl benzoate (BB) and castor oil (CO), 1:4). Delivery times were observed.
Subcutaneous treatments. All daily injections were by the subcutaneous route (s.c) in […] for the P4 treatments and benzyl benzoate (BB, 1 part): castor oil (CO, 4 parts) for the TMG group. P4 and TMG had dose ranges of 0.5 mg-4 mg per day and 0.5 mg-2 mg per day, respectively. Vehicles only are used in the control groups.
Topical treatments. Topical P4 and TMG (in fish oil and benzyl benzoate:castor oil (1:4), respectively) treatments were applied to the shaved back of the rat twice a day For topical treatments of P4 and TMG, dose range from 2 mg-30 mg per day and 0.005 to 0.5 mg per day, respectively.
Times of delivery of controls and treatment groups were determined as hours after 8 a.m. on day 22 of gestation. […] Delays in delivery less than 80 hours were calculated as less than 100% inhibition. The expulsion of a single pup was noted as delivery. Control groups spontaneously delivered on day 22 of gestation.
The Student's t test was used to compare the treatment groups with its specific control groups to determine the differences in delivery times. A 2-tailed probability value of P<0.05 was considered statistically significant.

[2] = biological target: T1, progesterone receptor (PR) (Homo sapiens, UniProt P06401); settings: cited from earlier work
T1 sequence (P06401 1-933): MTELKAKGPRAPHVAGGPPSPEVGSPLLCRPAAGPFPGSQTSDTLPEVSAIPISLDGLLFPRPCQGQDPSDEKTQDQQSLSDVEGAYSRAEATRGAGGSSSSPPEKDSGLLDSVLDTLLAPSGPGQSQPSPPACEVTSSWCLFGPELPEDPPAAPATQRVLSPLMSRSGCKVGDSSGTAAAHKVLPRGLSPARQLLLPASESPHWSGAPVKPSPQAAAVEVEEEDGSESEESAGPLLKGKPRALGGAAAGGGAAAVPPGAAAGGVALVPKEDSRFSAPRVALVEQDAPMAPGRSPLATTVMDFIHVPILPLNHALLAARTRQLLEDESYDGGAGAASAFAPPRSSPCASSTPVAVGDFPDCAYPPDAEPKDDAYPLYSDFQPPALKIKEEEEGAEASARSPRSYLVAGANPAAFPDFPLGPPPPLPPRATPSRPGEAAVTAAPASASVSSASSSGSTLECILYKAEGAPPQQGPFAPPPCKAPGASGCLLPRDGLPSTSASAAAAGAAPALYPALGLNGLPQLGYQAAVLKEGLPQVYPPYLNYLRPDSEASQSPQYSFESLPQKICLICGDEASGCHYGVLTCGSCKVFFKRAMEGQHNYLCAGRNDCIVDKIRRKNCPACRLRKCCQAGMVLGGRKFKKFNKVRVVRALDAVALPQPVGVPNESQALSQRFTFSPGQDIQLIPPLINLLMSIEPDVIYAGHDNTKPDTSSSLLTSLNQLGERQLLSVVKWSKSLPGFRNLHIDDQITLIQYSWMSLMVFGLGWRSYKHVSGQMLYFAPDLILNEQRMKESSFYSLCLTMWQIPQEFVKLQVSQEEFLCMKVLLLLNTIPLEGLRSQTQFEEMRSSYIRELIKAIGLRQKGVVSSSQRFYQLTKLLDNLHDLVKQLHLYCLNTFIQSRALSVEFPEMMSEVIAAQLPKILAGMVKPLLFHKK

androgen receptor = biological target: T2, androgen receptor (Homo sapiens, UniProt P10275); settings: cited from earlier work
T2 sequence (P10275 1-920): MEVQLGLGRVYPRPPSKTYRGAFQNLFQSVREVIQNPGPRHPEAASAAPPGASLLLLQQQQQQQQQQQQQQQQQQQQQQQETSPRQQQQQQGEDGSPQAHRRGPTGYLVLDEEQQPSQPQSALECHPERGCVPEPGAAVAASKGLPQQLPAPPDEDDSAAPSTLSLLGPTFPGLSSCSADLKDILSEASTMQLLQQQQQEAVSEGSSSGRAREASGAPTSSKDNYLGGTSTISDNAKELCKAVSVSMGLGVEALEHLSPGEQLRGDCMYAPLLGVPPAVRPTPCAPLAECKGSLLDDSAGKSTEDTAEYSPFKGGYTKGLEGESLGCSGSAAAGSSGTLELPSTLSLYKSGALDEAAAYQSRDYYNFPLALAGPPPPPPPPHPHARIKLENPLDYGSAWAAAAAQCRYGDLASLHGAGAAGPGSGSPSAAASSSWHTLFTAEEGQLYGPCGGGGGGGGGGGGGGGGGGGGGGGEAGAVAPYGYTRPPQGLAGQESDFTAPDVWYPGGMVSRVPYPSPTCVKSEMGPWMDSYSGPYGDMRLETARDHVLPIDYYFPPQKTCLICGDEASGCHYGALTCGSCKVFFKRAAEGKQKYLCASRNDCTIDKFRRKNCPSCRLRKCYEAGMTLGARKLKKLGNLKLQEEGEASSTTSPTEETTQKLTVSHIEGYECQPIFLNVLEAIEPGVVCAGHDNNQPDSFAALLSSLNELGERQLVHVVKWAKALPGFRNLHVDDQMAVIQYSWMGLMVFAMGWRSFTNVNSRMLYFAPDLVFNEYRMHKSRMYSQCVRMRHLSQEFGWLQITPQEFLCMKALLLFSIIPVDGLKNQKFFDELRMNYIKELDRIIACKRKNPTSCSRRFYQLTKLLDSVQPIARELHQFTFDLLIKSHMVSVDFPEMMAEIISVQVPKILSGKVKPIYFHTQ

[3] = species not stated; cited from earlier work
[4] = pregnant rats, s.c. single daily treatment from day 20 of gestation

Which “dose for complete block of delivery (80 hour delay, 100 percent inhibition), subcutaneous” value [1, 4] does the source give for `C[C@H](O)C(=O)[C@@]1(C)CC[C@H]2[C@@H]3CCC4=CC(=O)CCC4=C3CC[C@@]21C` [TMG, trimegestone] here?
Its value is 0.5 mg.

What about the “dose for complete block of delivery, subcutaneous” value [1, 4] of the same compound?
The value was 0.5 mg/day.

And the “lower dose for complete block of term delivery compared to P4, subcutaneous” value ([1]; pregnant rats, s.c., 0.5 mg TMG vs. 2 mg P4, P<0.05)?
Its value is “ca. 4 ×”.

And the “dose for complete block of delivery, topical” value ([1]; pregnant rats, topical twice a day from day 20 of gestation)?
The value was 0.1 mg/day.

What about the “lower dose for complete block of term delivery compared to P4, topically” value ([1]; pregnant rats, topical, 0.5 mg TMG vs. 15 mg P4, P<0.05) of the same compound?
Its value is “ca. 30 ×”.

And the “potency in delaying delivery in rats compared to P4” value ([1]; topical and parenteral administration)?
The value was “more potent than P4”.

And the “relative binding affinity (RBA) for TMG-PR interactions” value [2]?
The value was 588.

What about the “affinity for progesterone receptor (PR), higher than P4” value ([2]; relative to P4) of the same compound?
Its value is 6 fold.

What about the “potency, higher than P4” value ([2]; relative to P4) of the same compound?
The value was “approximately 6 times”.

What about the “affinity for the human progesterone receptor, greater than progesterone (P4)” value ([2]; relative to P4, human progesterone receptor) of the same compound?
The value was 6 times.

What about the “affinity to the androgen receptor” value (androgen receptor) of the same compound?
Its value is “low affinity”.

And the half-life [3]?
Its half-life is 17 h.
